Assay results taken from patent US20090162848A1, “Noxin, a novel stress-induced gene involved in cell cycle and apoptosis” (COLD SPRING HARBOR LABORATORY, priority 2007, published 2009).

Assays:
Type in all cases: cell-based, mouse
[1] = test system: noxin protein in NIH3T3 cells; assay: Western blot of endogenous noxin protein after stress stimuli; details: anti-noxin Western blot
Procedure: (§1) Western blot analysis. Cells or tissues were homogenized in the lysis buffer (10 mM Tris-HCl pH 7.5, 1 mM EDTA, 400 mM NaCl, 0.5% NP40, 5 mM NaF, 0.5 mM sodium orthovanadate, 10% glycerol, 1 mM dithiothreitol, 1 mM PMSF, 1 μg/ml aprotinin, 1 μg/ml leupeptin and 1 μg/ml pepstatin) for 20 min on ice. Following centrifugation, the soluble fraction was collected and protein concentration was determined using the BCA assay kit (Pierce). 50 μg of total protein was separated on an 8% SDS-PAGE gel and transferred to Immobilon-P membrane (Millipore Corporation) by semi-dry blotting. The membranes were incubated with anti-noxin antibody (see above) (1:1,000) followed by anti-mouse IgG or anti-rabbit IgG antibody conjugated to horseradish peroxidase (HRP) (1:10,000, Amersham). The HRP signal was detected using a chemi-luminescence detection kit (SuperSignal Femto Dura Extended Duration Substrate, Pierce) and Hyperfilm X-ray film (Amersham Biosciences).
Furthermore, in the SNAP-, cytokines-, γ-irradiation, and adriamycin-treated cells an additional band of 129 kD was evident.

noxin mRNA = assay: Northern blot time course of noxin mRNA induction
Procedure: Total RNA was extracted from different adult mouse tissues and analyzed for noxin mRNA by Northern hybridization. Northern blot analysis was carried out as follows. Total RNA (10 μg) was separated by denaturing formaldehyde-agarose gel electrophoresis and transferred onto a nylon membrane (Hybond-N^+, Amersham). The membrane was pre-hybridized with hybridization buffer (0.05 M sodium phosphate buffer, 5×SSC, 4×Denhardt's solution, 1% SDS, 50% formamide, 0.1 mg/ml salmon sperm DNA, and 0.2 mg/ml yeast tRNA) for 6 h at 42° C. and hybridized with the same buffer containing 100,000 cpm/ml [α-^32P] dCTP-labeled noxin cDNA probe amplified by PCR from pFLAG-noxin. Following hybridization for 20 h at 42° C., the membrane was washed twice with 2×SSC for 5 min at room temperature, twice with 0.2×SSC for 5 min at 65° C. and twice with 1×SSC with 3% glycerol for 5 min at room temperature. The membrane was exposed for 3 days at −70° C. using X-OMAT X-ray film (Kodak).
Noxin was identified as an NO-inducible gene and the time course of its induction by the NO donor SNAP was determined. Noxin mRNA levels as determined by Northern blot started to increase 2 h after the addition of SNAP and reached maximal levels 8 h after the addition (FIG. 6A). The pattern of noxin induction by SNAP was similar to that of a p53-dependent gene mdm2. Results for β-actin are shown as a control.

[2] = test system: noxin protein in NIH3T3 cells; assay: Subcellular localization of endogenous noxin by immunofluorescence; details: antibody against C-terminal region peptide
[3] = test system: MEFs from wild type and noxin-/- mice; assay: BrdU/PI flow cytometry of MEFs released from serum arrest, with SNAP
Procedure: Since noxin can induce cell cycle arrest and, in addition, respond to various types of stress stimuli, including NO, the growth characteristics of MEFs isolated from noxin^−/− animals or their wild type (noxin^+/+) littermates were compared. MEFs from wild type and noxin^−/− mice were arrested with low serum (0.1%) culture medium for 24 h and released by adding 10% serum. Cells were either left untreated or exposed to SNAP. At the time of release, BrdU was added to the culture medium and cells were further incubated for 4, 16, or 22 h (FIG. 17, indicated). Cells were collected, stained with PI and analyzed by flow cytometry for BrdU-positive cells (FIG. 17, X-axis: PI, Y-axis: BrdU) and for cell cycle distributions (FIG. 18, X-axis: PI and Y-axis: number of cells) (Fraction P3=G1, Fraction P4=S, Fraction P5=G2/M and Fraction P6=Sub-G1 populations). […]
The growth of noxin^−/− MEFs under normal conditions (FIG. 17g-i) and after addition of SNAP (FIGS. 17j-l) were similar to that of wild type MEFs (FIG. 17a-c and FIG. 17d-f). However, the fraction of sub-G1 cells was higher in noxin-deficient (noxin^−/−) cells (Fraction P6) at each time point analyzed than in wild type (noxin^+/+) MEFs (13.8, 16.3, and 11.5 vs. 9.7, 5.1, and 3.5%, respectively, FIG. 18 fraction P6).

[4] = test system: noxin mRNA in NIH3T3 cells; assay: Q-PCR of noxin mRNA in NIH3T3 cells exposed to stress stimuli; details: for induction of noxin mRNA: NIH3T3 cells exposed for 16 hours, Q-PCR
Procedure: The cDNA was diluted, mixed with 2×SYBR Green PCR Master Mix (Applied Biosystems) and 0.3 μM forward and reverse primers, and amplified using the ABI PRISM 7700 Sequence Detection System (Applied Biosystems). Primers (Sigma Genosys) for noxin and β-actin were designed using Primer Express software (Applied Biosystems) assuming the Tm value of 58-60° C. and the amplicon size of 70-150 bp:
The PCR conditions for the thermal cycler were as follows: denaturation (1 cycle at 95° C. for 10 min), amplification (40 cycles at 95° C. for 15 sec and 60° C. for 1 min). During the amplification, the fluorescence of each sample in the plate was detected in real time and an amplification curve was drawn by Sequence Detection System Software (Applied Biosystems) to get the threshold cycle Cτ, the cycle number at which the curve starts to rise over the background noise. The data from noxin amplifications were normalized using the Cτ value from the β-actin set for each sample and the relative difference in the amount of noxin RNA in untreated and in stress-exposed cells was calculated.
Noxin is induced not only by NO but also by other known stress stimuli. NIH3T3 cells were exposed for 16 hours to γ-irradiation (γ-IR), UV-irradiation (UV-IR), the chemotherapeutic agent adriamycin (ADR), hydrogen peroxide (H2O2), and a mixture of cytokines (TNF-α, IFN-γ, and IL-1β) which is known to be a potent inducer of reactive oxygen and nitrogen species.

[5] = test system: noxin protein in NIH3T3 cells; assay: Western blot of noxin protein by cell cycle phase and cell cycle inhibitors
Procedure: as §1, with “The membranes were incubated with anti-noxin antibody (see above) (1:1,000) followed by anti-mouse IgG or anti-rabbit IgG antibody conjugated to horseradish peroxidase (HRP) (1:10,000, Amersham).” left out
The relationship between cell cycle and noxin expression was examined by determining the noxin mRNA levels in cells in various phases of the cell cycle using the methodology as follows: NIH3T3 cells, synchronized by serum starvation (DMEM with 0.5% serum for 24 h) were released from arrest by the addition of 10% serum (corresponds to the 0 h time point). […] Noxin mRNA expression was analyzed using Q-PCR 0, 4, 14, or 20 h after the addition of serum. The cell cycle phase of the cells was determined by flow cytometry in the following manner: […]

NIH3T3 cells [6] = assay: DNA content (PI flow cytometry) of shRNA-transfected, nocodazole-treated NIH3T3 cells; details: for fraction of cells in the sub-G1 population: nocodazole for 20 h
Procedure: For this experiment, NIH3T3 cells were transfected with 1 μg (HPC) or 2 μg (2×HPC) of the HPC shRNA construct, treated with nocodazole for 20 h, collected, stained with PI, and analyzed for DNA content using flow cytometry. The downregulation of noxin using this shRNA construct decreased the fraction of cells in G2/M and increased the fraction of cells in the sub-G1 population: 5.7±0.4% in control cells vs. 7.8±1.3% in cells transfected with 1 μg of HPC, and 8.0±1.7% in cells transfected with 2 μg of HPC (FIG. 20B).

noxin = assay: Suppression of FLAG-noxin protein by shRNA constructs (co-transfection, Western blot); details: NIH3T3 cells co-transfected with shRNA, FLAG-noxin and luciferase
Excerpt: The role of noxin in normal cells was probed by down regulating its expression using the RNAi approach. Plasmids expressing six different noxin shRNA (FIG. 22, depicted as HPA-HPF) under control of the human U6 promoter were generated as described (Paddison et al., Proc Natl Acad Sci U.S.A. 99:1443-8 (2002)). The 6 hairpin structures correspond to the following noxin nucleotide positions: The target U6 promoter cassette DNA was amplified using a 5′-primer corresponding to the SP6 site at the 5′-end of the U6 promoter cassette and a long 3′ primer complementary to the 3′-end of the promoter and containing sequences for the noxin shRNA and a pol III termination site. The PCR fragments were subcloned into pENTR-TOPO-D vector (Invitrogen) and then transferred into pMSCV-puro vector by a clonase (Invitrogen) reaction. These six, short hairpin RNA (shRNA) constructs were generated and corresponded to different regions of noxin mRNA and their binding efficiency was compared by co-expressing them with recombinant noxin cDNA (FIG. 20A). To select shRNA constructs, six different shRNA constructs (HPA to HPF) were produced and examined for their ability to suppress the expression of noxin protein. […] After normalization, protein samples were analyzed for the expression of FLAG-noxin protein by Western blot.

NIH3T3 cells [7] = assay: Nuclear morphology (Hoechst) of shRNA/YFP-actin co-transfected cells; details: co-transfected with YFP-actin, Hoechst stain
Excerpt: Panels 21A-D are images of cells that were co-transfected with the HPC or HPF shRNA constructs together with YFP-actin construct and stained with Hoechst. shRNA-transfected cells were identified by the YFP expression. […] The nuclei of cells transfected with HPF and YFP-actin or with YFP-actin alone and the nuclei of non-transfected cells had normal shape (light blue arrowheads). Scale bar: 10 μm.

NIH3T3 cells [8] = assay: BrdU incorporation (DNA synthesis) in transfected versus untransfected NIH3T3 cells; details: BrdU labeling for 24 h
Procedure: In addition, constructs coding for cyan fluorescent protein with a nuclear localization signal (CFP-nuc), yellow fluorescent protein fused to actin (YFP-actin), or vector construct alone were used as controls. Cells were then labeled with BrdU for 24 h and analyzed cells in situ by immunocytochemistry for BrdU and noxin (or other listed proteins) (FIG. 11A-C). In the figures, signals from anti-FLAG antibodies are seen in red; anti-BrdU antibodies are green; Hoechst 33342 (blue) was used for nuclear counter-staining. […] Recombinant protein was detected on a Western blot using the anti-FLAG antibody.

CC(=O)NC(C(=O)O)C(C)(C)SN=O (racemic) [SNAP, S-nitroso-N-acetyl-D,L-penicillamine]
additional noxin band of 129 kD [1]: evident
levels of the 125 kD noxin polypeptide [1]: specifically increased
time after addition at which noxin mRNA levels started to increase (noxin mRNA): 2 h
time after addition at which noxin mRNA reached maximal levels (noxin mRNA): 8 h
localization of endogenous noxin protein after exposure [2]: predominantly nuclear localization
decrease of the fraction of dividing cells ([3]; MEFs released from low serum arrest, BrdU): 95.5%
effect on sub-G1 fraction (Fraction P6) ([3]; noxin+/+ or noxin-/- MEFs): did not noticeably affect

OO [H2O2, hydrogen peroxide]
levels of the 125 kD noxin polypeptide [1]: specifically increased
induction of noxin mRNA [4]: strong induction
noxin mRNA level versus unstimulated cells ([4]; NIH3T3 cells, stress exposure): 13 fold

COc1cccc2c1C(=O)c1c(O)c3c(c(O)c1C2=O)C[C@@](O)(C(=O)CO)C[C@@H]3O[C@H]1C[C@H](N)[C@H](O)[C@H](C)O1 [adriamycin]
additional noxin band of 129 kD [1]: evident
levels of the 125 kD noxin polypeptide [1]: specifically increased
induction of noxin mRNA [4]: strong induction

C[C@@]1(CO)[C@H](O)CC[C@@]2(C)[C@H]1CC[C@H]1C[C@@H]3C[C@@]12CC[C@]3(O)CO [aphidicolin]
Noxin levels in response to cell cycle inhibitors [5]: induced

COC(=O)Nc1nc2ccc(C(=O)c3cccs3)cc2[nH]1 [nocodazole]
Noxin levels in response to cell cycle inhibitors [5]: induced
cell cycle effect of nocodazole treatment (NIH3T3 cells [6]; NIH3T3 cells, 20 h): accumulation of cells in the G2/M phase

HPC: noxin shRNA construct, nt 1163-1191 (SEQ ID NO: 16) (DNA GTTGTCATGAAAGTAGATTGTCTGACTCT)
inhibition of noxin (FLAG-noxin) expression (noxin): strongest inhibition
nuclear / chromatin morphology of transfected cells (NIH3T3 cells [7]): condensed chromatin structures
fraction of cells in G2/M phase (NIH3T3 cells [6]; nocodazole-treated NIH3T3 cells): decreased
fraction of cells in the sub-G1 population (NIH3T3 cells [6]; transfected with 1 μg construct): 7.8±1.3%
fraction of cells in the sub-G1 population (NIH3T3 cells [6]; transfected with 2 μg construct): 8.0±1.7%

HPF: noxin shRNA construct, nt 509-537 (SEQ ID NO: 19) (DNA AAACCCTGGACAGTGGTAGAACTCAGAGC)
inhibition of noxin (FLAG-noxin) expression (noxin): no effect
nuclear / chromatin morphology of transfected cells (NIH3T3 cells [7]): normal shape

p21/WAF: cdk inhibitor p21/WAF expressed from transfected plasmid
fraction of BrdU-positive cells in transfected cells, % of the value for the untransfected cells (NIH3T3 cells [8]): 39%
